Reference: publication PMC8708704, “Discovery of New Chemical Tools against Leishmania amazonensis via the MMV Pathogen Box” (Pharmaceuticals, 2021)

system: Leishmania amazonensis promastigotes; assay: Leishmanicidal activity against promastigotes (alamarBlue assay; screening at 10 µM and IC50); assay type: cell-based; conditions: first screening, 10 µM, 72 h
Description: For the experiments, promastigotes of Leishmania amazonensis strain (MHOM/BR/77/LTB0016) were used; they were maintained in RPMI 1640 medium (Gibco, Massachusetts, USA) at 26 °C. […] Subsequently, the plates were analyzed on an EnSpire multimode plate reader (PerkinElmer, MA, USA) to measure their fluorescence after 72 h. […] To this end, serial dilutions were performed in 96 well plates, and incubated with the parasites for 72 h after adding alamarBlue®. Next, the plates were analyzed on the EnSpire plate reader and the IC50 values were calculated by using SigmaPlot 14.0 (Systat Software Inc., Chicago, IL, USA). Each concentration was tested in duplicate and in three independent experiments for all the compounds.

Structure (SMILES)	% of inhibition at 10 µM (against L. amazonensis promastigotes)
O[C@@H](c1cc(C(F)(F)F)nc2c(C(F)(F)F)cccc12)[C@H]1CCCCN1 [MMV000016, reference compound]	86%
N=C(N)c1ccc(OCCCCCOc2ccc(C(=N)N)cc2)cc1 [MMV000062, reference compound]	89%
CN(C)c1cc(NC(=O)Nc2ccccc2)c2ccccc2n1 [MMV006901]	85%
Cc1ccc(NC(=O)c2nc[nH]c2C(=O)Nc2nc3ccccc3[nH]2)c(C)c1 [MMV011903]	86%
Cc1cc(NCCc2ccccc2)nc(NC(=N)Nc2ccc(Cl)cc2)n1 [MMV021660]	87%
Cc1ccc(S(=O)(=O)n2cc(-c3ccnc(N)c3)c3cc(Br)cnc32)cc1 [MMV024114]	92%
O=C(Nc1cccc(Cl)c1)c1cnc(N2CCN(c3ccncc3)CC2)c(Cl)c1 [MMV024406]	92%
CCOC(=O)c1c(NC(=O)c2c(F)c(F)c(F)c(F)c2F)sc(C(N)=O)c1C [MMV153413]	86%
COc1cccc(-n2nnnc2S(C)(=O)=O)c1 [MMV272144]	89%
COC(=O)c1c(NC(=O)c2c(F)c(F)c(F)c(F)c2F)sc2c1CCCCC2 [MMV461553]	88%
Cc1nc(-c2ccccn2)nc(N2CCC(Cc3ccccc3)C2)c1Cl (stereo not shown) [MMV659004]	87%
Brc1cncc(-c2cc(NCCCn3ccnc3)nc(-c3ccccc3)n2)c1 [MMV661713]	84%
Cc1[nH]c2cc(F)cc(F)c2c(=O)c1-c1ccc(Oc2ccc(OC(F)(F)F)cc2)cc1 [MMV671636]	66%
CCC(Sc1nc2ccccc2o1)C(=O)Nc1nccs1 (stereo not shown) [MMV676383]	83%
c1coc(CNc2nc(N3CCCCC3)nc3ccccc23)c1 [MMV676401]	84%
N#Cc1nc(-c2ccccc2)oc1S(=O)(=O)c1ccc(Cl)cc1 [MMV676412]	93%
CCc1c(C)nc(-n2nc(C)cc2NC(=O)c2ccccc2SC)[nH]c1=O [MMV676477]	92%
Cc1ccc2oc(-c3cc(NC(=O)Cc4ccccc4)ccc3Cl)nc2c1 [MMV676509]	80%
Cc1ncc(-c2ccnc(Nc3ccc(S(C)(=O)=O)cc3)n2)n1C(C)C [MMV676604]	66%
CC1(O)CC(c2nc(-c3ccc4ccc(-c5ccccc5)nc4c3)c3c(N)nccn23)C1 (stereo not shown) [MMV676605]	53%
CC(C)=CCC/C(C)=C\CNCCNC1C2CC3CC(C2)CC1C3 (stereo not shown) [MMV687273]	89%
COc1cccc(-c2nc3c(N4CCCC4)cccc3n2CC2CCCN2)n1 (stereo not shown) [MMV687703]	85%
CCCCOC(=O)Nc1cc2[nH]c(C3CCCCC3)nc2cc1N1CCCC1 [MMV687730]	87%

Structure (SMILES)	% of inhibition at 10 µM (against L. amazonensis promastigotes)
Cc1cnc(N2CCN[C@@H](Cc3ccccc3)C2)nc1Oc1ccc(-n2ccnc2)cc1 [MMV687765]	82%
Cc1cc(C2=NOC(c3cc(Cl)c(F)c(Cl)c3)(C(F)(F)F)C2)ccc1C(=O)NCc1ccc2c(c1)C(C)(C)OB2O (stereo not shown) [MMV687776]	52%
CC(C)N=c1cc2n(-c3ccc(Cl)cc3)c3ccccc3nc-2cc1Nc1ccc(Cl)cc1 [MMV687800, reference compound]	88%
O=C(Nc1ccc(C(F)(F)F)c(C(F)(F)F)c1)c1cc(Cl)ccc1O [MMV687807]	90%
NC(N)=Nc1ccc(-c2ccc(-c3ccc(N=C(N)N)cc3Cl)o2)c(Cl)c1 [MMV688179]	86%
C[C@]1(COc2ccc(N3CCC(Oc4ccc(OC(F)(F)F)cc4)CC3)cc2)Cn2cc([N+](=O)[O-])nc2O1 [MMV688262]	86%
Nc1ccc2ncnc(Nc3ccc(OCc4cccc(F)c4)c(Cl)c3)c2c1 [MMV688273]	79%
CN1CCN(S(=O)(=O)c2ccc(-c3ccc4c(Nc5ncc(Cl)cn5)ccnc4c3)cc2)CC1 [MMV688283]	85%
NCCN(C(=O)c1ccc(Cl)cc1Cl)c1ccc(OCc2ccc(Cl)cc2)cc1 [MMV688371]	89%
O=C(Nc1ccc(F)c(-c2nc3ncc(-c4ccccc4)cc3[nH]2)c1)N1CCCC1 [MMV688372]	87%
CC(C)n1nc(-c2cc3c(Cl)cccc3[nH]2)c2c(N)ncnc21 [MMV688417]	87%
CO/N=C(/C(=O)OC)c1ccccc1CO/N=C(/C)c1cccc(C(F)(F)F)c1 [MMV688754]	76%
CS(=O)(=O)c1ccc(C(=O)N(CC2CCCO2)c2nc3ccccc3s2)cc1[N+](=O)[O-] (stereo not shown) [MMV688761]	88%
CNc1nnc(Sc2cnn(-c3ccccc3)c(=O)c2Cl)s1 [MMV688763]	86%
Cc1[nH]c2ccccc2c1C(c1cccs1)N1CCN(C)CC1 (stereo not shown) [MMV688768]	86%
COc1ccc2nccc(NC(=O)C3CCN(CCc4ccc(Cl)cc4)CC3)c2n1 [MMV688844]	80%
O=C(c1ccco1)N(CCCn1ccnc1)c1nc2c(Cl)cccc2s1 [MMV688936]	90%
CCOc1ccc(-c2nc(CNCCc3ccc(F)cc3)cs2)cc1 [MMV688938]	85%
CC(=O)OC[C@H]1O[C@@H]([S-])[C@H](OC(C)=O)[C@@H](OC(C)=O)[C@@H]1OC(C)=O.CC[PH+](CC)CC.[Au] [MMV688978, reference compound]	90%
CC(c1cc(Cl)cc(Cl)c1)N(C)c1ncc2c(N)nc(N)nc2n1 (stereo not shown) [MMV689437]	89%
COc1nc2ccc(Br)cc2cc1[C@@H](c1ccccc1)[C@@](O)(CCN(C)C)c1cccc2ccccc12 [MMV689758, reference compound]	90%
COc1ccc(Oc2ccc([C@@H](C)N(C)c3ncc4c(N)nc(N)nc4n3)cc2)cc1 [MMV690102]	89%
Cc1ccc(-c2nc(CN(Cc3ccccn3)C(C)C)cs2)o1 [MMV1088520]	89%
